From PMC4654880, “A comparison of the enzymatic properties of three recombinant isoforms of thrombolytic and antibacterial protein—Destabilase-Lysozyme from medicinal leech” (BMC Biochemistry, 2015)
Each block holds one molecule with its values, some of them ahead of it.

What was measured:
Test in all cases: isopeptidase assay, p-nitroaniline release, A405
Type in all cases: biochemical, Hirudo medicinalis
Details in all cases: pH 5.5, no NaCl (stated for activity), 37 °C
mlDL-Ds3 = test system: T1, mlDL-Ds3
T1 construct: gene Ds-3; ~16 kDa; monomer by gel filtration; synthetic codon-optimised gene
Excerpt: isopeptidase assay, p-nitroaniline release, A405 on mlDL-Ds3

mlDL-Ds1 = test system: T2, mlDL-Ds1
T2 construct: gene Ds-1; ~16 kDa band printed for Ds3; monomer by gel filtration; synthetic codon-optimised gene
Excerpt: isopeptidase assay, p-nitroaniline release, A405 on mlDL-Ds1

[1] = substrate: N[C@@H](CCC(=O)Nc1ccc([N+](=O)[O-])cc1)C(=O)O
Excerpt: isopeptidase assay, p-nitroaniline release, A405 on mlDL-Ds2

Km (mlDL-Ds3): 20 µM
Km (mlDL-Ds1): 40 µM
Molecule: N[C@@H](CCC(=O)Nc1ccc([N+](=O)[O-])cc1)C(=O)O [L-γ-Glu-pNA]

B1: mlDL-Ds2 (Hirudo medicinalis) (protein)
chain: QFTDSCLRCICKVEGCDSQIGKCGMDVGSLSCGPYQIKKPYWIDCGKPGGGYESCTKNKACSETCVRAYMKRYGTFCTGGRTPTCQDYARIHNGGPRGCKSSATVGYWNKVQKCLR
notes: monomer by gel filtration; synthetic codon-optimised gene
Km [1]: 50 µM
kcat [1]: 0.08 s⁻¹
